Consider 38 molecules from patent US20060089371A1, “Phenyl or heteroaryl amino alkane derivatives as ip receptor antagonist” (Bayer HealthCare AG, priority 2002, published 2006).

The target of one data set is T1, IP receptor (Homo sapiens, UniProt P43119).
T1 construct: one million cells in 160 μl aliquot of cell suspension were put in a well of 96 well plate; host or cells: HEL 92.1.7 human erythroleukemia cells (whole cells)
The experiment in a line: IP receptor binding/cAMP in HEL cells ([3H]-iloprost binding, Assay 1; iloprost-induced cAMP production, Assay 2). The conditions noted are these: compounds of about 40 to 90% purity, read-out: In vitro activity grade (IC50 class). As to the method:
[Measurement of the [^3H]-iloprost Binding to HEL Cells] (Assay 1)
A human erythloleukemia cell line, HEL 92.1.7, was purchased from American Type Culture Correction and maintained in RPMI-1640 medium (Gibco BRL) supplemented with 10% fetal calf serum (FCS), 2 mM glutamine, 4.5 g/L glucose, 10 mM Hepes, 1 mM sodium pyruvate, 100 U/ml penicillin, and 100 μg/ml streptomycin in a humidified 5% CO2 atmosphere at 37° C. Cells were collected with centrifugation and washed with binding assay buffer (BAB: 50 mM Tris-HCl, 5 mM MgCl2 (pH 7.5)). Cells were suspended at the density of 6.25×10^6 cells/ml in BAB, and one million cells in 160 μl aliquot of cell suspension were put in a well of 96 well plate (Falcon). Then, 20 μl of compound solution, 100 μM of iloprost (for non-specific binding), or buffer alone (total binding), diluted with 1% DMSO in BAB was added. Finally, another 20 μl containing [^3H]-iloprost (0.02 μCi, 0.5-1 pmol) in BAB was added and incubated at room temperature for 30 min with a gentle shaking. Cell suspension was then transferred to a well of MultiScreen plate with GF/C glass filters (Millipore) to harvest cells. Cells were washed twice with 200 μl of ice-cold BAB and the plate was kept at 55° C. for 30 min to dry filters. The filter in the well was punched out to a counting tube and 2 ml of Ultima Gold XR (Packard) was added. [^3H]-radio activity in the filter was measured by a liquid scintillation counter (Beckman, USA).
[Iloprost-Induced cAMP Production Assay in HEL Cells] (Assay 2)
HEL cells were collected with centrifugation and washed with cAMP assay buffer (CAB: Hank's balanced salt solution, 17 mM Hepes, 0.1% bovine serum albumin, 1 mM IBMX, 0.4% DMSO, and 1 mM L-ascorbic acid sodium salt (pH 7.4)). Cells were suspended at the density of 2.5×10^5 cells/ml in CAB, and twenty thousand cells in 80 μl aliquot of cell suspension were put in a well of 96 well plate (Falcon). Then, 10 μl of compound solution diluted with 1% DMSO in CAB or buffer alone was added. The plate was incubated at 37° C. for 30 min. Then, another 10 μl containing 100 nM iloprost in CAB or buffer alone was added and further incubated at 37° C. for 30 min. cAMP content in the well was measured by a cAMP ELISA kit (Applied Biosystems, USA).
The data corresponds to the compounds as yielded by solid phase synthesis and thus to levels of purity of about 40 to 90%. For practical reasons, the compounds are grouped in three classes of activity as follows: IC50=A<0.1 μM≦B<1 μM≦C
On the technique in general: cAMP levels reflect the balance of adenylyl cyclase and phosphodiesterase activity.

T1 sequence (P43119 whole entry): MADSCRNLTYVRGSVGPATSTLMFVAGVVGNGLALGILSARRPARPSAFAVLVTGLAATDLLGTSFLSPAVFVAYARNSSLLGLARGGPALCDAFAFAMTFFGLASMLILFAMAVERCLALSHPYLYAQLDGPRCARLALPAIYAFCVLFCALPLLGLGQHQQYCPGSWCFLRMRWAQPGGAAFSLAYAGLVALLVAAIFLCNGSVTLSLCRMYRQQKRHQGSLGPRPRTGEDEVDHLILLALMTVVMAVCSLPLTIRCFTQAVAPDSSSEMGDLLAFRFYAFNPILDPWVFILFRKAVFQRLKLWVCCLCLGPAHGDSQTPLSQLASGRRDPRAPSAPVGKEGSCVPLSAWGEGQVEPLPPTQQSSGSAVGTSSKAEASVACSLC

Broadly, the IC50 is the midpoint of a concentration-inhibition curve. In general, melting point refers to the temperature of the solid-liquid transition. The molecule `O=C(O)[C@H](Cc1ccccc1)Nc1cc(-c2ccc(OCC3CC3)cc2)ncn1` [Example 2-1, N-{6-[4-(Cyclopropylmethoxy)phenyl]pyrimidin-4-yl}phenylalanine] displayed a melting point of 216 to 218 °C. Besides, the IC50 at IP receptor is less than 0.1 µM.

In the case of `COc1cc(COc2ccc(-c3cc(NC(Cc4ccccc4)C(=O)O)ncn3)cc2)cc(OC)c1` (stereo not shown) [Example 2-2], the melting point is 90 to 93 °C. On IP receptor, the IC50 is less than 0.1 µM.

In turn, `O=C(O)C(Cc1ccccc1)Nc1cc(-c2ccc(OCc3cccc(F)c3)cc2)ncn1` (stereo not shown) [Example 2-3] came in with a melting point of 175 to 177 °C. In addition, the concentration for half-maximal inhibition (IC50) on IP receptor is less than 0.1 µM.

For the molecule `COc1cccc(COc2ccc(-c3cc(NC(Cc4ccccc4)C(=O)O)ncn3)cc2)c1` (stereo not shown) [Example 2-4], the melting point lay within 90 to 93 °C. In addition, the concentration for half-maximal inhibition (IC50) at IP receptor was less than 0.1 µM.

`O=C(O)C(Cc1ccccc1)Nc1cc(-c2ccc(O)cc2)ncn1` (stereo not shown) [Example 2-5] returned a melting point of 223 to 227 °C. Besides, the 50% inhibitory concentration (IC50) on IP receptor was more than 1 µM.

As to `O=C(O)C(Cc1ccccc1)Nc1cc(-c2ccc(OCc3ccccc3F)cc2)ncn1` (stereo not shown) [Example 2-6], the melting point is 220 to 223 °C (dec.). Further, on IP receptor, the half-inhibitory concentration (IC50) was less than 0.1 µM.

With `O=C(O)C(Cc1ccccc1)Nc1cc(-c2ccc(OCc3ccc(F)cc3)cc2)ncn1` (stereo not shown) [Example 2-7], the melting point was 228 to 230 °C (dec.). The half-maximal inhibitory concentration (IC50) at IP receptor is less than 0.1 µM.

In the case of `O=C(O)C(Cc1ccccc1)Nc1cc(-c2ccc(OCC3CCCCC3)cc2)ncn1` (stereo not shown) [Example 2-8], the melting point fell in the range of 118 to 120 °C. Besides, on IP receptor, the 50% inhibitory concentration (IC50) is less than 0.1 µM.

Molecule `O=C(O)C(Cc1ccccc1)Nc1cc(-c2ccc(OCCn3cccc3)cc2)ncn1` (stereo not shown) [Example 2-9] displayed a melting point of 209 to 211 °C. The IC50 on IP receptor was less than 0.1 µM.

`CCCCOc1ccc(-c2cc(NC(Cc3ccccc3)C(=O)O)ncn2)cc1` (stereo not shown) [Example 2-10]: the melting point lay within 205 to 208 °C. Further, the concentration for half-maximal inhibition (IC50) on IP receptor was less than 0.1 µM.

Turning to `O=C(O)C(Cc1ccccc1)Nc1cc(-c2ccc(OCc3cc(F)cc(F)c3)cc2)ncn1` (stereo not shown) [Example 2-11], the melting point was 207 to 210 °C (dec.). The IC50 on IP receptor is less than 0.1 µM.

On to `CC(C)Oc1ccc(-c2cc(NC(Cc3ccccc3)C(=O)O)ncn2)cc1` (stereo not shown) [Example 2-12], for which the melting point was 201 to 204 °C (dec.). Also, the IC50 at IP receptor is less than 0.1 µM.

Take `COc1ccc(-c2cc(NC(Cc3ccccc3)C(=O)O)ncn2)cc1` (stereo not shown) [Example 2-13]: the melting point was 203 to 206 °C (dec.). Also, the half-inhibitory concentration (IC50) at IP receptor was in the range of 0.1 to 1 µM.

In the case of `O=C(O)C(Cc1ccccc1)Nc1cc(-c2ccc(OCc3cccc(O)c3)cc2)ncn1` (stereo not shown) [Example 2-14], the melting point is 190 to 193 °C (dec.). Further, at IP receptor, the 50% inhibitory concentration (IC50) is less than 0.1 µM.

`O=C(O)C(Cc1ccccc1)Nc1cc(-c2ccc(OCC3CCC3)cc2)ncn1` (stereo not shown) [Example 2-15]: the melting point was 210 to 213 °C (dec.). The half-maximal inhibitory concentration (IC50) on IP receptor is less than 0.1 µM.

For `O=C(O)C(Cc1ccccc1)Nc1cc(-c2ccc(OCCc3ccccc3)cc2)ncn1` (stereo not shown) [Example 2-16], the melting point is 214 to 216 °C (dec.). For the same molecule, the IC50 at IP receptor was less than 0.1 µM.

`CC(C)COc1ccc(-c2cc(NC(Cc3ccccc3)C(=O)O)ncn2)cc1` (stereo not shown) [Example 2-17]: the melting point is 210 to 213 °C (dec.). In addition, the 50% inhibitory concentration (IC50) on IP receptor is less than 0.1 µM.

In the case of `O=C(O)C(Cc1ccccc1)Nc1cc(-c2ccc(OCC3CCCC3)cc2)ncn1` (stereo not shown) [Example 2-20], the melting point fell in the range of 125 to 128 °C. Also, the 50% inhibitory concentration (IC50) on IP receptor was less than 0.1 µM.

In the case of `O=C(O)C(Cc1ccccc1)Nc1cc(-c2ccc(OCc3cccnc3)cc2)ncn1` (stereo not shown) [Example 2-21], the melting point is 135 to 136 °C (dec.). Further, the 50% inhibitory concentration (IC50) on IP receptor is less than 0.1 µM.

Molecule `O=C(O)C(Cc1ccccc1)Nc1cc(-c2ccc(OCCN3CCCC3)cc2)ncn1` (stereo not shown) [Example 2-22] returned a melting point of 117 to 120 °C. At IP receptor, the 50% inhibitory concentration (IC50) is more than 1 µM.

As for `O=C(O)C(Cc1ccccc1)Nc1cc(-c2ccc(OCCc3cccnc3)cc2)ncn1` (stereo not shown) [Example 2-23], the melting point lay in the range of 85 to 88 °C. Moreover, at IP receptor, the half-maximal inhibitory concentration (IC50) is less than 0.1 µM.

For `COCCOc1ccc(-c2cc(NC(Cc3ccccc3)C(=O)O)ncn2)cc1` (stereo not shown) [Example 2-24], the melting point was 190 to 193 °C (dec.). On IP receptor, the concentration for half-maximal inhibition (IC50) is less than 0.1 µM.

On to `O=C(O)C(Cc1ccccc1)Nc1cc(-c2ccc(OCCCc3ccccc3)cc2)ncn1` (stereo not shown) [Example 2-25], for which the melting point lay in the range of 101 to 104 °C. In addition, the IC50 on IP receptor was less than 0.1 µM.

Take `O=C(O)C(Cc1ccccc1)Nc1cc(-c2ccc(OCCc3ccccn3)cc2)ncn1` (stereo not shown) [Example 2-26]: the melting point was 120 to 122 °C (dec.). On IP receptor, the IC50 was less than 0.1 µM.

On to `O=C(O)C(Cc1ccccc1)Nc1cc(-c2ccc(OCCc3ccncc3)cc2)ncn1` (stereo not shown) [Example 2-27], for which the melting point lay in the range of 113 to 115 °C. Also, the IC50 on IP receptor was less than 0.1 µM.

Molecule `O=C(O)C(Cc1ccccc1)Nc1cc(-c2ccc(OCc3ccccn3)cc2)ncn1` (stereo not shown) [Example 2-28] yielded a melting point of 120 to 123 °C. Moreover, the IC50 on IP receptor is less than 0.1 µM.

Regarding `O=C(O)C(Cc1ccccc1)Nc1cc(-c2ccc(OCc3ccncc3)cc2)ncn1` (stereo not shown) [Example 2-29], the melting point lay in the range of 110 to 113 °C. For the same molecule, on IP receptor, the IC50 was less than 0.1 µM.

Molecule `O=C(O)C(Cc1cccc(O)c1)Nc1cc(-c2ccc(OCc3ccccc3)cc2)ncn1` (stereo not shown) [Example 2-30] displayed a melting point of 169 °C. Further, the half-maximal inhibitory concentration (IC50) at IP receptor was less than 0.1 µM.

Molecule `O=C(O)C(Cc1ccccc1)Nc1cc(-c2ccc(OCC(F)(F)F)cc2)ncn1` (stereo not shown) [Example 2-31] displayed a melting point of 109 to 112 °C. In addition, on IP receptor, the concentration for half-maximal inhibition (IC50) was less than 0.1 µM.

`O=C(O)C(Cc1ccccn1)Nc1cc(-c2ccc(OCc3ccccc3F)cc2)ncn1` (stereo not shown) [Example 2-32] gave a melting point of 84 to 87 °C. Further, on IP receptor, the half-inhibitory concentration (IC50) was less than 0.1 µM.

In turn, `O=C(O)C(Cc1ccccn1)Nc1cc(-c2ccc(OCc3cccc(F)c3)cc2)ncn1` (stereo not shown) [Example 2-33] returned a melting point of 92 to 95 °C. Further, the IC50 at IP receptor was less than 0.1 µM.

The molecule `CCCCC(Nc1cc(-c2ccc(OCc3ccccc3F)cc2)ncn1)C(=O)O` (stereo not shown) [Example 2-34] showed a melting point of 85 to 90 °C. Further, at IP receptor, the concentration for half-maximal inhibition (IC50) is less than 0.1 µM.

In turn, `CCCCC(Nc1cc(-c2ccc(OCc3cccc(F)c3)cc2)ncn1)C(=O)O` (stereo not shown) [Example 2-35] showed a melting point of 181 to 186 °C. Besides, the IC50 at IP receptor is less than 0.1 µM.

In turn, `O=C(O)C(Cc1ccccn1)Nc1cc(-c2ccc(OCCc3ccccc3)cc2)ncn1` (stereo not shown) [Example 2-38] yielded a melting point of 52 to 53 °C. Besides, at IP receptor, the IC50 was less than 0.1 µM.

Consider `O=C(O)C(Cc1ccccn1)Nc1cc(-c2ccc(OCc3cc(F)cc(F)c3)cc2)ncn1` (stereo not shown) [Example 2-39], for which the melting point lay in the range of 90 to 92 °C. At IP receptor, the IC50 is less than 0.1 µM.

Regarding `CCCCC(Nc1cc(-c2ccc(OCCc3ccccc3)cc2)ncn1)C(=O)O` (stereo not shown) [Example 2-40], the melting point is 86 to 88 °C. Further, at IP receptor, the 50% inhibitory concentration (IC50) is less than 0.1 µM.

`CCCCC(Nc1cc(-c2ccc(OCc3cccc(OC)c3)cc2)ncn1)C(=O)O` (stereo not shown) [Example 2-44] showed a melting point of 115 to 118 °C. Moreover, the concentration for half-maximal inhibition (IC50) on IP receptor was less than 0.1 µM.

Regarding `CCCCC(Nc1cc(-c2ccc(OCc3cc(OC)cc(OC)c3)cc2)ncn1)C(=O)O` (stereo not shown) [Example 2-45], the melting point lay in the range of 88 to 93 °C. The IC50 at IP receptor was less than 0.1 µM.
